In the assay the target is α-glucosidase. The experiment in a line: SPR (Biacore 8K, CM5 chip, immobilized enzyme); also p-NPG inhibition (IC50 […], Ki […], non-competitive, reversible) and CD. It counts as binding, Saccharomyces cerevisiae. For orientation: In SPR one partner is held on a chip, and binding of the other changes the refractive index at the surface.

In the case of `Oc1cc(-c2ccccc2)cc(O)c1O` [THB, 3,4,5-Trihydroxybiphenyl], the dissociation constant (Kd) (in general, a measure of binding affinity in units of concentration) amounted to 39.1 µM.

These data come from paper PMC12287757, “Exploring the inhibitory effect and mechanism of 3,4,5-trihydroxybiphenyl on α-glucosidase: an integrated experimental and computational approach” (Frontiers in Pharmacology, 2025).
